Data as given in PubChem BioAssay AID330 (DTP/NCI, 2004).
Values joined by “and” are separate entries in the source; they are usually repeats but may differ in a detail not shown here. Identical values can stand only once. Inconclusive results and toxic doses are left out.

Test system: P388 leukemia ip, CD2F1 mice, survival T/C
Assay: NCI In Vivo Anticancer Drug Screen. Data for tumor model P388 Leukemia (intraperitoneal) in CD2F1 (CDF1) mice
Settings: endpoint: median survival time, higher = longer survival
Outline: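 Mice carrying the transplanted tumor received test compound or vehicle. Survival was recorded in each group, and the value is the treated-group measurement divided by that of the vehicle-treated control group.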

[1] = dose: 60.0 mg/kg/injection, schedule: Q01DX005 (ip), vehicle: saline
[2] = dose: 120.0 mg/kg/injection, schedule: Q01DX005 (ip), vehicle: saline
[3] = dose: 60.0 mg/kg/injection, schedule: Q01DX005 (ip), vehicle: saline with Tween-80
[4] = dose: 120.0 mg/kg/injection, schedule: Q01DX005 (ip), vehicle: saline with Tween-80
[5] = dose: 240.0 mg/kg/injection, schedule: Q01DX005 (ip), vehicle: saline with Tween-80
[6] = dose: 25.0 mg/kg/injection, schedule: Q01DX009 (ip), vehicle: saline with Tween-80
[7] = dose: 50.0 mg/kg/injection, schedule: Q01DX009 (ip), vehicle: saline with Tween-80
[8] = dose: 100.0 mg/kg/injection, schedule: Q01DX009 (ip), vehicle: saline with Tween-80
[9] = dose: 100.0 mg/kg/injection, schedule: Q01DX009 (ip), vehicle: Klucel (hydroxypropylcellulose) (HPC)
[10] = dose: 200.0 mg/kg/injection, schedule: Q01DX009 (ip), vehicle: Klucel (hydroxypropylcellulose) (HPC)
[11] = dose: 200.0 mg/kg/injection, schedule: Q01DX005 (ip), vehicle: saline with Tween-80
[12] = dose: 100.0 mg/kg/injection, schedule: Q01DX005 (ip), vehicle: saline with Tween-80
[13] = dose: 60.0 mg/kg/injection, schedule: Q01DX005 (ip), vehicle: Klucel (hydroxypropylcellulose) (HPC)
[14] = dose: 120.0 mg/kg/injection, schedule: Q01DX005 (ip), vehicle: Klucel (hydroxypropylcellulose) (HPC)

Cc1sc2ccc3ccccc3c2[n+]1C
T/C (dose: 15.0 mg/kg/injection, schedule: Q01DX005 (ip), vehicle: saline): 100 % of control and 106 % of control and 95 % of control | T/C (dose: 30.0 mg/kg/injection, schedule: Q01DX005 (ip), vehicle: saline): 104 % of control and 108 % of control and 118 % of control | T/C [1]: 116 % of control | T/C [2]: 91 % of control and 114 % of control

C/C(=C/C(=O)O)c1ccc([N+](=O)[O-])cc1
T/C [3]: 94 % of control | T/C [4]: 100 % of control | T/C [5]: 101 % of control

COc1cccc2c1C(=O)c1c(O)c3c(c(O)c1C2=O)C[C@@](O)(C(C)=O)C[C@@H]3OC1CC(N)C(OC2CC(O)C(O)C(C)O2)C(C)O1 (some centres undefined)
T/C (dose: 2.25 mg/kg/injection, schedule: Q04DX003 (ip), vehicle: distilled water + Tween-80): 113 % of control | T/C (dose: 4.5 mg/kg/injection, schedule: Q04DX003 (ip), vehicle: distilled water + Tween-80): 113 % of control | T/C (dose: 6.25 mg/kg/injection, schedule: Q04DX003 (ip), vehicle: distilled water + Tween-80): 112 % of control | T/C (dose: 9.0 mg/kg/injection, schedule: Q04DX003 (ip), vehicle: distilled water + Tween-80): 123 % of control | T/C (dose: 12.5 mg/kg/injection, schedule: Q04DX003 (ip), vehicle: distilled water + Tween-80): 112 % of control | T/C (dose: 25.0 mg/kg/injection, schedule: Q04DX003 (ip), vehicle: distilled water + Tween-80): 119 % of control | T/C (dose: 36.0 mg/kg/injection, schedule: Q04DX003 (ip), vehicle: distilled water + Tween-80): 123 % of control | T/C (dose: 100.0 mg/kg/injection, schedule: Q04DX003 (ip), vehicle: distilled water + Tween-80): 118 % of control

C=CC1C(OC2OC(CO)C(O)C(O)C2O)OC=C(C(=O)OC)C1CC1CC(=O)CC(CCc2ccc(O)cc2)O1 (centres undefined)
T/C (dose: 8.0 mg/kg/injection, schedule: Q01DX005 (ip), vehicle: distilled water + Tween-80): 96 % of control | T/C (dose: 16.0 mg/kg/injection, schedule: Q01DX005 (ip), vehicle: distilled water + Tween-80): 99 % of control | T/C (dose: 25.0 mg/kg/injection, schedule: Q01DX005 (ip), vehicle: water): 100 % of control | T/C (dose: 32.0 mg/kg/injection, schedule: Q01DX005 (ip), vehicle: distilled water + Tween-80): 91 % of control | T/C (dose: 50.0 mg/kg/injection, schedule: Q01DX005 (ip), vehicle: water): 99 % of control | T/C (dose: 64.0 mg/kg/injection, schedule: Q01DX005 (ip), vehicle: distilled water + Tween-80): 90 % of control | T/C (dose: 100.0 mg/kg/injection, schedule: Q01DX005 (ip), vehicle: water): 96 % of control | T/C (dose: 200.0 mg/kg/injection, schedule: Q01DX005 (ip), vehicle: water): 99 % of control

CCCCCCCCOCC(O)CN(CCO)CCO (centres undefined)
T/C (dose: 12.5 mg/kg/injection, schedule: Q01DX009 (ip), vehicle: saline): 107 % of control | T/C (dose: 25.0 mg/kg/injection, schedule: Q01DX009 (ip), vehicle: saline): 92 % of control | T/C (dose: 50.0 mg/kg/injection, schedule: Q01DX009 (ip), vehicle: saline): 94 % of control and 97 % of control

COc1ccc2c3c([nH]c2c1[N+](=O)[O-])C(C)NCC3 (centres undefined)
T/C (dose: 12.5 mg/kg/injection, schedule: Q01DX005 (ip), vehicle: Klucel (hydroxypropylcellulose) (HPC)): 101 % of control | T/C (dose: 25.0 mg/kg/injection, schedule: Q01DX005 (ip), vehicle: Klucel (hydroxypropylcellulose) (HPC)): 92 % of control | T/C (dose: 50.0 mg/kg/injection, schedule: Q01DX005 (ip), vehicle: Klucel (hydroxypropylcellulose) (HPC)): 92 % of control

CCOCCOCCOC(C)Oc1cccc(C(=O)OCC)c1 (centres undefined)
T/C [3]: 92 % of control | T/C [4]: 100 % of control | T/C [5]: 92 % of control

COc1cc2c(c(OC)c1OC)-c1ccc(SC)c(=O)cc1C(NC(=S)NC1OCC(OC(C)=O)C(OC(C)=O)C1OC(C)=O)CC2 (centres undefined)
T/C [6]: 178 % of control and 184 % of control | T/C [7]: 200 % of control and 191 % of control | T/C [8]: 93 % of control and 101 % of control

Cn1c(C(C)(C)OC(=O)Oc2ccccc2)cnc1[N+](=O)[O-]
T/C [9]: 96 % of control | T/C [10]: 100 % of control

O=C1C2=Nc3ccccc3C(O)N2c2ccccc21 (centres undefined)
T/C (dose: 12.5 mg/kg/injection, schedule: Q01DX009 (ip), vehicle: saline with Tween-80): 88 % of control | T/C [6]: 89 % of control | T/C [7]: 90 % of control and 97 % of control | T/C [8]: 93 % of control | T/C (dose: 200.0 mg/kg/injection, schedule: Q01DX009 (ip), vehicle: saline with Tween-80): 94 % of control

COC(=O)/C=N/O
T/C [1]: 99 % of control | T/C [2]: 102 % of control | T/C (dose: 240.0 mg/kg/injection, schedule: Q01DX005 (ip), vehicle: saline): 102 % of control

CC1=C(C)C(=O)c2c(c(O)c3ccccc3c2Cl)C1=O
T/C (dose: 0.75 mg/kg/injection, schedule: Q01DX005 (ip), vehicle: saline with Tween-80): 96 % of control | T/C (dose: 1.5 mg/kg/injection, schedule: Q01DX005 (ip), vehicle: saline with Tween-80): 89 % of control | T/C (dose: 3.0 mg/kg/injection, schedule: Q01DX005 (ip), vehicle: saline with Tween-80): 91 % of control | T/C [11]: 93 % of control

CC1C(c2ccccc2)OCCN1C(=S)Nc1ccc(S(=O)(=O)N2CCCCC2)cc1 (centres undefined)
T/C (dose: 50.0 mg/kg/injection, schedule: Q01DX009 (ip), vehicle: Klucel (hydroxypropylcellulose) (HPC)): 86 % of control and 95 % of control | T/C [9]: 105 % of control | T/C [10]: 91 % of control and 95 % of control

O=C1OC2C(I)C3CC2C1C3c1ccccc1 (centres undefined)
T/C (dose: 50.0 mg/kg/injection, schedule: Q01DX005 (ip), vehicle: saline with Tween-80): 105 % of control | T/C [12]: 103 % of control | T/C [11]: 105 % of control

CCC1OC(=O)C1[Si](C)(C)C (centres undefined)
T/C (dose: 100.0 mg/kg/injection, schedule: Q01DX001 (ip), vehicle: saline): 99 % of control | T/C (dose: 200.0 mg/kg/injection, schedule: Q01DX001 (ip), vehicle: saline): 103 % of control | T/C (dose: 400.0 mg/kg/injection, schedule: Q01DX001 (ip), vehicle: saline): 103 % of control

CC(C)=CCc1c(O)ccc(C(=O)[C@H]2C(c3ccc(O)cc3O)CC(C)=C[C@@H]2c2c(O)cc(O)c3c(=O)c(CC=C(C)C)c(-c4ccc(O)cc4O)oc23)c1O (some centres undefined)
T/C (dose: 7.5 mg/kg/injection, schedule: Q01DX005 (ip), vehicle: Klucel (hydroxypropylcellulose) (HPC)): 92 % of control | T/C (dose: 15.0 mg/kg/injection, schedule: Q01DX005 (ip), vehicle: Klucel (hydroxypropylcellulose) (HPC)): 97 % of control | T/C (dose: 30.0 mg/kg/injection, schedule: Q01DX005 (ip), vehicle: Klucel (hydroxypropylcellulose) (HPC)): 93 % of control | T/C [13]: 108 % of control | T/C [14]: 92 % of control

NS(=O)(=O)Oc1ccc(Cl)cc1C(=O)Oc1ccc(Cl)cc1
T/C [13]: 91 % of control | T/C [14]: 91 % of control | T/C (dose: 240.0 mg/kg/injection, schedule: Q01DX005 (ip), vehicle: Klucel (hydroxypropylcellulose) (HPC)): 88 % of control

CC(O)[C@H]1CC[C@H]2[C@@H]3CC(=O)[C@H]4C[C@H](O)[C@H](O)C[C@]4(C)[C@H]3CC[C@]12C (some centres undefined)
T/C (dose: 100.0 mg/kg/injection, schedule: Q04DX002 (ip), vehicle: saline with Tween-80): 91 % of control | T/C (dose: 200.0 mg/kg/injection, schedule: Q04DX002 (ip), vehicle: saline with Tween-80): 90 % of control | T/C (dose: 400.0 mg/kg/injection, schedule: Q04DX002 (ip), vehicle: saline with Tween-80): 90 % of control

CC1(C)CC(=O)C=C(Nc2ccc(O)cc2)C1
T/C (dose: 6.25 mg/kg/injection, schedule: Q01DX005 (ip), vehicle: saline with Tween-80): 100 % of control | T/C (dose: 12.5 mg/kg/injection, schedule: Q01DX005 (ip), vehicle: saline with Tween-80): 100 % of control | T/C (dose: 25.0 mg/kg/injection, schedule: Q01DX005 (ip), vehicle: saline with Tween-80): 96 % of control | T/C [12]: 86 % of control

CN1CCc2cc(O)c(O)cc2C1Cc1ccc(O)c(O)c1 (centres undefined)
T/C [7]: 100 % of control | T/C [8]: 96 % of control

CN(C)c1ccc(C=NCCCN=Cc2ccc(N(C)C)cc2)cc1
T/C [8]: 104 % of control

C=C1C(=O)C23C(O)C1CCC2C12COC3(O)C(O)C1C(C)(C)CCC2OC(C)=O (centres undefined)
T/C (dose: 10.0 mg/kg/injection, schedule: Q01DX009 (ip), vehicle: saline with Tween-80): 117 % of control | T/C (dose: 20.0 mg/kg/injection, schedule: Q01DX009 (ip), vehicle: saline with Tween-80): 117 % of control | T/C [6]: 110 % of control
